Like-named read-outs stand apart in the source and are kept apart here.
Target: T1, human PDE4B1 (Homo sapiens, UniProt Q07343)
T1 construct: host or cells: Sf9 cells
Experiment: cAMP HTRF assay to determine the activity of hPDE4B1
Type: biochemical
Details: for inhibition at 1 µM: Percentage inhibition of PDE4B at 1 μM test concentration; for IC50: reported as ranges; for inhibition at 0.1 µM: Percentage inhibition of PDE4B at 0.1 μM test concentration, read-out: Inhibition [%] (inh. at 0.1 μM)
Summary of the method: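 Sf9-expressed recombinant human PDE4B1 (4.8 U) in Tris-HCl/MgCl2/DTT/Tween 20 buffer pH 7.8, with cAMP at 40 nM final, 30 min at room temperature. Reaction stopped with IBMX 1 mM; remaining cAMP detected by HTRF (665/620 nm ratio). IC50 from eight-point dose-response, n=2.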

[1] = dose response measurements with eight concentrations, read-out: IC50

T1 sequence (Q07343 whole entry): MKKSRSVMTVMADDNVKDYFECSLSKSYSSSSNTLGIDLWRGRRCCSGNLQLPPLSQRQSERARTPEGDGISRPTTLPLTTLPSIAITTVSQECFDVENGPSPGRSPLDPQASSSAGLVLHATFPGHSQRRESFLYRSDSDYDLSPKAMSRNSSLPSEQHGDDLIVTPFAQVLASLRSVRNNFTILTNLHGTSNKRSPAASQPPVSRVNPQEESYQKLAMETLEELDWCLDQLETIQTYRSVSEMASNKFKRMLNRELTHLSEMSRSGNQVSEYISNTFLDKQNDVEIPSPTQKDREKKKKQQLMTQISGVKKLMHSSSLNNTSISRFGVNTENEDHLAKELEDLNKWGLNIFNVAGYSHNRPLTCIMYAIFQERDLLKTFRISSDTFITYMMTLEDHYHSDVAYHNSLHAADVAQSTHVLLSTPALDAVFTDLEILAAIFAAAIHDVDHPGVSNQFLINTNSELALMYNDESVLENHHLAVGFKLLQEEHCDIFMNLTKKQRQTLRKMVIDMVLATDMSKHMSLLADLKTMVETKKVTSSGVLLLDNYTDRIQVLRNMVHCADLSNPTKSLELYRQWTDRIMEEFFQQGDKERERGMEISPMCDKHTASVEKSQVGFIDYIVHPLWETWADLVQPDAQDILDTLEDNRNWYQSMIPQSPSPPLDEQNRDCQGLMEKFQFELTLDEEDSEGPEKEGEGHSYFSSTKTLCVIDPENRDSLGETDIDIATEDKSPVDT

Row | SMILES | inhibition at 1 µM [%] | IC50 [1] [µM] | inhibition at 0.1 µM [%] | IC50 (IC50, dose response measurements with eight concentrations) [µM]
1 | O=C(COc1ccc2c(c1)N(c1nc(-c3ccc(Cl)s3)nc3c1CCC3)CC2)NCCO [Compound No. 2-69, 2-((1-(2-(5-Chlorothiophen-2-yl)-6,7-dihydro-5H-cyclopenta[d]pyrimidin-4-yl)indolin-6-yl)oxy)-N-(2-hydroxyethyl)acetamide] | 4 |  |  | 
2 | CNC(=O)COc1ccc2c(c1)N(c1nc(-c3ccc(Cl)s3)nc3c1CCC3)CC2 [Compound No. 2-70, 2-((1-(2-(5-Chlorothiophen-2-yl)-6,7-dihydro-5H-cyclopenta[d]pyrimidin-4-yl)indolin-6-yl)oxy)-N-methylacetamide] | 23 |  |  | 
3 | NC(=O)COc1ccc2c(c1)N(c1nc(-c3ccc(Cl)s3)nc3c1CCC3)CC2 [Compound No. 2-71, 2-((1-(2-(5-Chlorothiophen-2-yl)-6,7-dihydro-5H-cyclopenta[d]pyrimidin-4-yl)indolin-6-yl)oxy)acetamide] | 14 |  |  | 
4 | CN(C)C(=O)COc1ccc2cnn(-c3nc(-c4ccc(Cl)s4)nc4c3C[S+]([O-])C4)c2c1 (stereo not shown) [Compound No. 2-72, 2-((1-(2-(5-Chlorothiophen-2-yl)-6-oxido-5,7-dihydrothieno[3,4-d]pyrimidin-4-yl)-1H-indazol-6-yl)oxy)-N,N-dimethylacetamide] | 102 | < 0.1 |  | 
5 | CN(C)C(=O)COc1ccc2ccn(-c3nc(-c4ccc(Cl)s4)nc4c3C[S+]([O-])C4)c2c1 (stereo not shown) [Compound No. 2-73, 2-((1-(2-(5-Chlorothiophen-2-yl)-6-oxido-5,7-dihydrothieno[3,4-d]pyrimidin-4-yl)-1H-indol-6-yl)oxy)-N,N-dimethylacetamide] | 116 | < 0.1 |  | 
6 | CN(C)C(=O)COc1ccc2c(c1)N(c1nc(-c3ccc(C#N)c(F)c3)nc3c1C[S+]([O-])C3)CC2 (stereo not shown) [Compound No. 2-77, 2-((1-(2-(4-Cyano-3-fluorophenyl)-6-oxido-5,7-dihydrothieno[3,4-d]pyrimidin-4-yl)indolin-6-yl)oxy)-N,N-dimethylacetamide] | 92 | < 0.1 |  | 
7 | CN(C)C(=O)COc1ccc2c(c1)N(c1nc(-c3ccc(Cl)c(F)c3)nc3c1C[S+]([O-])C3)CC2 (stereo not shown) [Compound No. 2-78, 2-((1-(2-(4-Chloro-3-fluorophenyl)-6-oxido-5,7-dihydrothieno[3,4-d]pyrimidin-4-yl)indolin-6-yl)oxy)-N,N-dimethylacetamide] | 105 | < 0.1 |  | 
8 | CN(C)C(=O)COc1ccc2c(c1)N(c1nc(-c3ccc(O)c(F)c3)nc3c1C[S+]([O-])C3)CC2 (stereo not shown) [Compound No. 2-79, 2-((1-(2-(3-Fluoro-4-hydroxyphenyl)-6-oxido-5,7-dihydrothieno[3,4-d]pyrimidin-4-yl)indolin-6-yl)oxy)-N,N-dimethylacetamide] | 92 | < 0.1 |  | 
9 | CN(C)C(=O)COc1ccc2c(c1)N(c1nc(-c3ccc(C(N)=O)s3)nc3c1C[S+]([O-])C3)CC2 (stereo not shown) [Compound No. 2-80, 5-(4-(6-(2-(Dimethylamino)-2-oxoethoxy)indolin-1-yl)-6-oxido-5,7-dihydrothieno[3,4-d]pyrimidin-2-yl)thiophene-2-carboxamide] |  | < 0.1 | 101 | 
10 | CN(C)C(=O)COc1ccc2c(c1)N(c1nc(-c3ccc(C(N)=O)s3)nc3c1CS(=O)(=O)C3)CC2 [Compound No. 2-81, 5-(4-(6-(2-(Dimethylamino)-2-oxoethoxy)indolin-1-yl)-6,6-dioxido-5,7-dihydrothieno[3,4-d]pyrimidin-2-yl)thiophene-2-carboxamide] |  | < 0.1 | 113 | 
11 | CN(C)C(=O)COc1ccc2c(c1)N(c1nc(-c3ccc(C#N)s3)nc3c1C[S+]([O-])C3)CC2 (stereo not shown) [Compound No. 2-82, 2-((1-(2-(5-Cyanothiophen-2-yl)-6-oxido-5,7-dihydrothieno[3,4-d]pyrimidin-4-yl)indolin-6-yl)oxy)-N,N-dimethylacetamide] | 99 | < 0.1 |  | 
12 | CN(C)C(=O)COc1ccc2c(c1)N(c1nc(-c3ccc(C#N)s3)nc3c1CS(=O)(=O)C3)CC2 [Compound No. 2-83, 2-((1-(2-(5-Cyanothiophen-2-yl)-6,6-dioxido-5,7-dihydrothieno[3,4-d]pyrimidin-4-yl)indolin-6-yl)oxy)-N,N-dimethylacetamide] | 97 | < 0.1 |  | 
13 | CN(C)C(=O)COc1ccc2c(c1)N(c1nc(-c3ccc(C#N)s3)nc3c1CCC3)CC2 [Compound No. 2-84, 2-((1-(2-(5-Cyanothiophen-2-yl)-6,7-dihydro-5H-cyclopenta[d]pyrimidin-4-yl)indolin-6-yl)oxy)-N,N-dimethylacetamide] | 91 | < 0.1 |  | 
14 | CN(C)C(=O)COc1ccc2c(c1)N(c1nc(-c3ccc(Br)c(F)c3)nc3c1C[S+]([O-])C3)CC2 (stereo not shown) [Compound No. 2-86, 2-((1-(2-(4-Bromo-3-fluorophenyl)-6-oxido-5,7-dihydrothieno[3,4-d]pyrimidin-4-yl)indolin-6-yl)oxy)-N,N-dimethylacetamide] | 111 | 0.1 to 1 |  | 
15 | O=C(COc1ccc2c(c1)N(c1nc(-c3ccc(Cl)s3)nc3c1CCC3)CC2)NC1CC1 [Compound No. 2-114, 2-((1-(2-(5-Chlorothiophen-2-yl)-6,7-dihydro-5H-cyclopenta[d]-pyrimidin-4-yl)indolin-6-yl)oxy)-N-cyclopropylacetamide] | 38 |  |  | 
16 | COc1ccc(-c2nc3c(c(N4CCc5ccc(OCC(=O)N(C)C)cc54)n2)CS(=N)(=O)C3)cc1F (stereo not shown) [Compound No. 2-115, 2-((1-(2-(3-Fluoro-4-methoxyphenyl)-6-imino-6-oxido-5,7-dihydrothieno[3,4-d]pyrimidin-4-yl)indolin-6-yl)oxy)-N,N-dimethylacetamide] | 106 | < 0.1 |  | 
17 | O=C(COc1ccc2c(c1)N(c1nc(-c3ccc(Cl)s3)nc3c1C[S+]([O-])C3)CC2)N1CCCC1 (stereo not shown) [Compound No. 2-116, 2-((1-(2-(5-Chlorothiophen-2-yl)-6-oxido-5,7-dihydrothieno[3,4-d]pyrimidin-4-yl)indolin-6-yl)oxy)-1-(pyrrolidin-1-yl)ethanone] | 121 |  |  | 
18 | CN1CCN(C(=O)COc2ccc3c(c2)N(c2nc(-c4ccc(Cl)s4)nc4c2C[S+]([O-])C4)CC3)CC1 (stereo not shown) [Compound No. 2-117, 2-((1-(2-(5-Chlorothiophen-2-yl)-6-oxido-5,7-dihydrothieno[3,4-d]pyrimidin-4-yl)indolin-6-yl)oxy)-1-(4-methylpiperazin-1-yl)ethanone] | 88 |  |  | 
19 | O=C(COc1ccc2c(c1)N(c1nc(-c3ccc(Cl)s3)nc3c1C[S+]([O-])C3)CC2)N1CCOCC1 (stereo not shown) [Compound No. 2-118, 2-((1-(2-(5-Chlorothiophen-2-yl)-6-oxido-5,7-dihydrothieno[3,4-d]pyrimidin-4-yl)indolin-6-yl)oxy)-1-morpholinoethanone] | 93 |  |  | 
20 | COc1ccc(-c2nc3c(c(N4CCc5ccc(OCC(=O)N6CCCC6)cc54)n2)C[S+]([O-])C3)cc1F (stereo not shown) [Compound No. 2-119, 2-((1-(2-(3-Fluoro-4-methoxyphenyl)-6-oxido-5,7-dihydrothieno[3,4-d]pyrimidin-4-yl)indolin-6-yl)oxy)-1-(pyrrolidin-1-yl)ethanone] | 107 |  |  | 
21 | O=C(COc1ccc2c(c1)N(c1nc(-c3ccc(F)s3)nc3c1C[S+]([O-])C3)CC2)N1CCCC1 (stereo not shown) [Compound No. 2-120, 2-((1-(2-(5-Fluorothiophen-2-yl)-6-oxido-5,7-dihydrothieno[3,4-d]pyrimidin-4-yl)indolin-6-yl)oxy)-1-(pyrrolidin-1-yl)ethanone] | 116 |  |  | 
22 | COc1ccc(-c2nc3c(c(N4CCc5ccc(OCC(=O)N6CCCC6)cc54)n2)C[S+]([O-])C3)cc1 (stereo not shown) [Compound No. 2-121, 2-((1-(2-(4-Methoxyphenyl)-6-oxido-5,7-dihydrothieno[3,4-d]pyrimidin-4-yl)indolin-6-yl)oxy)-1-(pyrrolidin-1-yl)ethanone] | 111 |  |  | 
23 | O=C(COc1ccc2c(c1)N(c1nc(-c3ccc(Cl)s3)nc3c1C[S+]([O-])C3)CC2)N1CCC1 (stereo not shown) [Compound No. 2-122, 1-(Azetidin-1-yl)-2-((1-(2-(5-chlorothiophen-2-yl)-6-oxido-5,7-dihydrothieno[3,4-d]pyrimidin-4-yl)indolin-6-yl)oxy)ethanone] | 40 |  |  | 
24 | CN1CCN(C(=O)COc2ccc3c(c2)N(c2nc(-c4ccc(Cl)s4)nc4c2CS(=O)(=O)C4)CC3)CC1 [Compound No. 2-123, 2-((1-(2-(5-Chlorothiophen-2-yl)-6,6-dioxido-5,7-dihydrothieno[3,4-d]pyrimidin-4-yl)indolin-6-yl)oxy)-1-(4-methylpiperazin-1-yl) ethanone] | 95 |  |  | < 0.1
25 | O=C(COc1ccc2c(c1)N(c1nc(-c3ccc(Cl)s3)nc3c1CS(=O)(=O)C3)CC2)N1CCC1 [Compound No. 2-124, 1-(Azetidin-1-yl)-2-((1-(2-(5-chlorothiophen-2-yl)-6,6-dioxido-5,7-dihydrothieno[3,4-d]pyrimidin-4-yl)indolin-6-yl)oxy)ethanone] | 104 | < 0.1 |  | 
26 | O=C(COc1ccc2c(c1)N(c1nc(-c3ccc(Cl)s3)nc3c1CS(=O)(=O)C3)CC2)N1CCOCC1 [Compound No. 2-125, 2-((1-(2-(5-Chlorothiophen-2-yl)-6,6-dioxido-5,7-dihydrothieno[3,4-d]pyrimidin-4-yl)indolin-6-yl)oxy)-1-morpholinoethanone] | 85 | < 0.1 |  | 
27 | O=C(COc1ccc2c(c1)N(c1nc(-c3ccc(Cl)s3)nc3c1CS(=O)(=O)C3)CC2)N1CCCC1 [Compound No. 2-126, 2-((1-(2-(5-Chlorothiophen-2-yl)-6,6-dioxido-5,7-dihydrothieno[3,4-d]pyrimidin-4-yl)indolin-6-yl)oxy)-1-(pyrrolidin-1-yl)ethanone] | 104 | < 0.1 |  | 

Source: patent US9527832B2, “Substituted condensed pyrimidine compounds” (GRÜNENTHAL GMBH, priority 2013, dated 2016)
